Entries after “also recorded” stand apart in the source; their conditions may differ.
What was measured:
[1] = system: LAM fibroblasts from Arom^hum mice; test: Click-iT EdU proliferation assay; type: cell-based, mouse; conditions: 1 μM antagonist; E2 (10 nM)+R5020 (100 nM)
[2] = long-term use; cited from earlier work
aromatase enzyme = molecular target: T1, aromatase enzyme (Homo sapiens, UniProt P11511); conditions: cited from earlier work
T1 sequence (P11511 1-503): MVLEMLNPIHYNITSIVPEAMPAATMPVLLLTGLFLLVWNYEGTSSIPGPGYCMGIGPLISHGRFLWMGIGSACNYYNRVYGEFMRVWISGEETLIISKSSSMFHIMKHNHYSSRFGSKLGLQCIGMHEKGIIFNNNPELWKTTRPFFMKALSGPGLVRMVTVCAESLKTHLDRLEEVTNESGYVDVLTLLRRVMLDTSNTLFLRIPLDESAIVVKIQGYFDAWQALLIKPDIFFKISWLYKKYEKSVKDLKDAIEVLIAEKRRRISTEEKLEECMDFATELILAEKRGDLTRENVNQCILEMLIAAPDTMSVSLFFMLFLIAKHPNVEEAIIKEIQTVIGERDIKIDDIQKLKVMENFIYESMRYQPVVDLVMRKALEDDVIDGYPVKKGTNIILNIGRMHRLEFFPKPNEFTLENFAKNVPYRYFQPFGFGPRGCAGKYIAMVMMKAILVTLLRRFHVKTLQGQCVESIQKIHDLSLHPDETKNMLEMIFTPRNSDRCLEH

[3] = system: LAM primary fibroblasts from Arom^hum mice; test: mRNA levels of P4/PGR-responsive and fibrotic genes in LAM primary fibroblasts; type: cell-based, mouse
[4] = molecular target: T2, glucocorticoid receptor (GR) (Homo sapiens, UniProt P04150); conditions: cited from earlier work
T2 sequence (P04150 1-777): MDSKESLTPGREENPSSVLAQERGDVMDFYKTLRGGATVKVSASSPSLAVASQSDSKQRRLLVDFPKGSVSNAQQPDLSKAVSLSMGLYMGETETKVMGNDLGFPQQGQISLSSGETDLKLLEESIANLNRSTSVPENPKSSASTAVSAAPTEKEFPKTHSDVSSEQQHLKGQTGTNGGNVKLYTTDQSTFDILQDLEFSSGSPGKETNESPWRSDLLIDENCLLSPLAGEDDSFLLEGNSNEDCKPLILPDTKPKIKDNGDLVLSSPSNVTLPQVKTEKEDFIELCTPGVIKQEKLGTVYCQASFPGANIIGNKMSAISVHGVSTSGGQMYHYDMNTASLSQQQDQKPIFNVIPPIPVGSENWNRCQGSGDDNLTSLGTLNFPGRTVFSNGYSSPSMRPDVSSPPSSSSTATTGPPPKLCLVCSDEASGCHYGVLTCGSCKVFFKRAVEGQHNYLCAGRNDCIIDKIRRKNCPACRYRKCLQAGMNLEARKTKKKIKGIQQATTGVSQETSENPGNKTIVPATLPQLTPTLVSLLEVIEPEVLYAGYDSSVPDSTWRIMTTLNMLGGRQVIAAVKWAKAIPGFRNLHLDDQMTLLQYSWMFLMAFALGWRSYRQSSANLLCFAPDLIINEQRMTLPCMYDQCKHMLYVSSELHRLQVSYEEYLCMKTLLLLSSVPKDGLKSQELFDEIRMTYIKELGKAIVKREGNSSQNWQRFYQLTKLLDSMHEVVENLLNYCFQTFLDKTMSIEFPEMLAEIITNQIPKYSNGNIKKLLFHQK

PGR = molecular target: T3, PGR (Homo sapiens, UniProt P06401); conditions: cited from earlier work
T3 sequence (P06401 1-933): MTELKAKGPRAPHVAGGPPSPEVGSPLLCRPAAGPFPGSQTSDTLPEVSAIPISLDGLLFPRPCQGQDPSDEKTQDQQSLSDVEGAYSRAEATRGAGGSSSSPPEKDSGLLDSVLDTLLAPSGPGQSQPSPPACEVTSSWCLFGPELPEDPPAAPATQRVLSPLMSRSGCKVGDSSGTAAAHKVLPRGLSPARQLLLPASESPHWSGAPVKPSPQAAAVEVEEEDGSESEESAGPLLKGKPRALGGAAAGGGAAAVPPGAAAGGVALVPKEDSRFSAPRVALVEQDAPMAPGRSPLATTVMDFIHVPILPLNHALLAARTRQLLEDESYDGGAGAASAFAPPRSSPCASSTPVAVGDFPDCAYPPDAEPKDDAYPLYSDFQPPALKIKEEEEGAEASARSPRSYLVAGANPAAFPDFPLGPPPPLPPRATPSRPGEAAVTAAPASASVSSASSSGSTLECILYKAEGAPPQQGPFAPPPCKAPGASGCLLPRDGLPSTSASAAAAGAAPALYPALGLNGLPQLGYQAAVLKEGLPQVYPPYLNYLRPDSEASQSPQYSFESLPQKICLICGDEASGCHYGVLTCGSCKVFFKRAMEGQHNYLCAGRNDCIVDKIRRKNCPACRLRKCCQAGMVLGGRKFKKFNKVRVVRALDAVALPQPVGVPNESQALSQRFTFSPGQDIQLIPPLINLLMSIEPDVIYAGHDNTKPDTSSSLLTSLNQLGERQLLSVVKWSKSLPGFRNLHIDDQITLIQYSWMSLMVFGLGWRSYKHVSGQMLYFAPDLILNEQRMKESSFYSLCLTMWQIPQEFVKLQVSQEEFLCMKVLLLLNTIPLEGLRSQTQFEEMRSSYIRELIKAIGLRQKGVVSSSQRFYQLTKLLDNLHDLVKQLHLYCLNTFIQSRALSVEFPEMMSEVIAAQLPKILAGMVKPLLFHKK

For `CN(C)c1ccc([C@H]2C[C@]3(C)[C@@H](CC[C@]3(O)CCCO)[C@@H]3CCC4=CC(=O)CCC4=C32)cc1` [ZK299, Onapristone], the “inhibition of E2+R5020-stimulated LAM fibroblast proliferation” value [1] is given as “inhibited; also recorded: blocked”, the liver toxicity [2] is given as “significant liver toxicity” and the “inhibition of aromatase enzyme activity” value (aromatase enzyme) is given as “weak aromatase inhibitor”. The “E2+R5020-induced expression of P4/PGR-responsive (Greb1, Cyp7b1) and fibrotic genes (Adamtsl1, Col1a1, Col14a1)” value ([3]; 1 μM antagonist, pretreated 2 h before E2 (10 nM)+R5020 (100 nM)) was “significantly decreased; also recorded: strongest inhibition”, the “E2+R5020-stimulated expression of Col1a1 and Col12a1, blockade” value ([3]; pretreatment with 1 μM antagonist) was “blocked” and the anti-glucocorticoid activity [4] was “minimal or no antiglucocorticoid properties”. The “P4/PGR antagonism and PGR selectivity” value (PGR) was “highly PGR-selective pure P4 antagonist”.

— patent US20250186461A1, “METHODS AND COMPOSITIONS FOR TREATING AND/OR PREVENTING HERNIAS” (Northwestern University, priority 2023, published 2025)
